Data published in patent publication US20080119477A1, “N-Biaryl and N-Arylheteroaryl Piperazine Derivatives as Modulators of the 5Ht2c Receptor Useful For the Treatment of Disorders Related Thereto” (priority 2004, published 2008).

Assays:
human 5HT2C receptor = target: T1, human 5HT2C receptor (Homo sapiens, UniProt P28335); assay: Intracellular IP3 accumulation assay, 5HT2C; assay type: cell-based; details: HEK293 cells transfected with human 5HT2C receptor cDNA; read-out: 5HT2C (EC50) IP Accumulation Assay
T1 construct: expressed in transfected cells; host or cells: HEK293
T1 sequence (P28335 33-458): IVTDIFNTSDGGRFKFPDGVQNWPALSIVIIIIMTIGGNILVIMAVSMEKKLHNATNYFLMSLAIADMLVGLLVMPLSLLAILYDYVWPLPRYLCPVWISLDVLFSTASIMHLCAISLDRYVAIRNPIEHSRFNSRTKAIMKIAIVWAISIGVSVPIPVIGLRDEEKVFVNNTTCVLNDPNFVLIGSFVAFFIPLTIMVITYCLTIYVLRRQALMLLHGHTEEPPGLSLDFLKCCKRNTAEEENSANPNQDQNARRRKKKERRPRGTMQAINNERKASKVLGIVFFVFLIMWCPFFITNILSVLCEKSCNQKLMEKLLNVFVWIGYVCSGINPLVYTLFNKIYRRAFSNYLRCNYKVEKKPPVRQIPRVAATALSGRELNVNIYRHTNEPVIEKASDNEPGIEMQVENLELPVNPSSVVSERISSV
Protocol: Intracellular IP3 Accumulation Assay:
HEK293 cells were transfected in 15 cm sterile dishes with or without (control) 16 ug of human 5HT2C receptor cDNA [for example see, Saltzman, A. G., et al. Biochem. Biophys. Res. Commun. 181, 1469-1478 (1991)] using 25 ul of lipofectamine. Cells were then incubated for 3-4 hours at 37° C./5% CO2 and then transfection media was removed and replaced with 100 ul of DMEM. Cells were then plated onto 100 cm sterile dishes. The next day cells were plated into 96 well PDL microtiter plates at a density of 55 K/0.2 mL. Six hours latter, media was exchanged with [^3H]inositol (0.25 uCi/well) in inositol free DMEM and plates were incubated at 37° C./5% CO2 overnight. The next day, wells were aspirated and 200 ul of DMEM containing test compound, 10 uM pargyline, and 10 mM LiCl was added to appropriate wells. Plates were then incubated at 37° C./5% CO2 for three hours followed aspiration and by addition of fresh ice cold stop solution (1M KOH, 19 mM Na-borate, 3.8 mM EDTA) to each well. Plates were kept on ice for 5-10 min and the wells were neutralized by addition of 200 ul of fresh ice cold neutralization solution (7.5% HCl). Plates were then frozen until further processing is desired. The lysate was then transferred into 1.5 mL Eppendorf tubes and 1 mL of chloroform/methanol (1:2) was added/tube. […]

5HT2B receptor = 5HT2B receptor (Homo sapiens, UniProt P41595); assay: Activity against the 5HT2B receptor (selectivity); assay type: cell-based
5HT2A receptor = 5HT2A receptor (Homo sapiens, UniProt P28223); assay: EC50 against the 5HT2A receptor (selectivity); assay type: cell-based
[1] = test system: amyloid precursor protein (APPs) secretion; details: guinea pigs, repeat administration; cited from earlier work

Chain of 5HT2B receptor (P41595 whole entry): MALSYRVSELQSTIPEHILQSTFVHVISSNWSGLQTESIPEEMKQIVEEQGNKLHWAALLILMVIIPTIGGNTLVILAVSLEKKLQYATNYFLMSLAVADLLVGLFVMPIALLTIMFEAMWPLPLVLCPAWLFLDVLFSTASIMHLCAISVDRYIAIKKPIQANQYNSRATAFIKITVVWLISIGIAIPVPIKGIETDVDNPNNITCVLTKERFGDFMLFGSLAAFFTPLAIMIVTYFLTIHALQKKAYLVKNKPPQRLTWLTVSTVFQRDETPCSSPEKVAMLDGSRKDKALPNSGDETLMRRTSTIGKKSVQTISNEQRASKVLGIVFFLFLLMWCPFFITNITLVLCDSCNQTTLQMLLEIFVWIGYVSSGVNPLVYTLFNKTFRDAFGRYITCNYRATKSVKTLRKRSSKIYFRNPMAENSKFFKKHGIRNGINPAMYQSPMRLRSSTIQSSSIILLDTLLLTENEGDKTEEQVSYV
Chain of 5HT2A receptor (P28223 whole entry): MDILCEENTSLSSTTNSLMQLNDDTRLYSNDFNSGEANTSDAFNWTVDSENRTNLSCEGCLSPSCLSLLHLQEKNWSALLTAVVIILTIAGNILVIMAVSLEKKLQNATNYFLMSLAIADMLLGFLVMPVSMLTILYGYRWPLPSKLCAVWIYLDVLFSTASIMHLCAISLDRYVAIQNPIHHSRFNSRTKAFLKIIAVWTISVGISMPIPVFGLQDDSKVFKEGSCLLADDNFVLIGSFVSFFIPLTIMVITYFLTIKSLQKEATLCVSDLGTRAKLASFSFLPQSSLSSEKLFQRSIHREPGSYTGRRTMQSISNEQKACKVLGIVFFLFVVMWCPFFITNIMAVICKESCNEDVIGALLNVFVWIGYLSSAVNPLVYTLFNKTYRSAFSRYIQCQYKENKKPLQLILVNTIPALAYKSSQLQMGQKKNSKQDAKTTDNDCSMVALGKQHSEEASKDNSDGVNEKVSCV

Row | Compound | EC50 (human 5HT2C receptor) | activity against the 5HT2B receptor (5HT2B receptor) | EC50 (5HT2A receptor) | amyloid precursor protein (APPs) secretion [1] | levels of Aβ production in vivo [1]
1 | Fc1cc(-c2ccsc2)cc(N2CCNCC2)c1 [Compound 1, 1-(3-Fluoro-5-thiophen-3-yl-phenyl)-piperazine] | 7 nM | essentially inactive | > 10000 nM | – | –
2 | Fc1ccc(-c2ccccc2)cc1N1CCNCC1 [Compound 10, 1-(4-Fluoro-biphenyl-3-yl)-piperazine] | 21 nM | essentially inactive | – | – | –
3 | C[C@H](N)Cc1cccc(C(F)(F)F)c1 [dexnorfenfluramine] | – | – | – | stimulated | reducing levels
